Source: PubChem BioAssay AID248 (DTP/NCI, 2004)
Several values for one entry are separate records, joined by “and”; a condition that tells them apart may be missing. Equal entries are not always repeated. Toxic doses and inconclusive results are not listed. No stated cut-off is given here; in the data, active means T/C of 150% or more; inactive means T/C below 125%.

System: L1210 leukemia ip in BDF1 mice, survival T/C
Test: NCI In Vivo Anticancer Drug Screen. Data for tumor model L1210 Leukemia (intraperitoneal) in B6D2F1 (BDF1) mice
Settings: endpoint: mean survival time, higher = longer survival
In short: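 Ratio derived from survival: compound-dosed mice over vehicle-dosed mice, all bearing a transplantable tumor.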

[1] = dose: 50.0 mg/kg/injection, schedule: Q01DX009 (ip), vehicle: saline
[2] = dose: 100.0 mg/kg/injection, schedule: Q01DX009 (ip), vehicle: saline
[3] = dose: 200.0 mg/kg/injection, schedule: Q01DX009 (ip), vehicle: saline
[4] = dose: 50.0 mg/kg/injection, schedule: Q01DX001 (ip), vehicle: saline
[5] = dose: 100.0 mg/kg/injection, schedule: Q01DX001 (ip), vehicle: saline
[6] = dose: 200.0 mg/kg/injection, schedule: Q01DX001 (ip), vehicle: saline
[7] = dose: 25.0 mg/kg/injection, schedule: Q04DX003 (ip), vehicle: saline with Tween-80
[8] = dose: 50.0 mg/kg/injection, schedule: Q04DX003 (ip), vehicle: saline with Tween-80
[9] = dose: 100.0 mg/kg/injection, schedule: Q01DX001 (ip), vehicle: other
[10] = dose: 200.0 mg/kg/injection, schedule: Q01DX001 (ip), vehicle: other
[11] = dose: 400.0 mg/kg/injection, schedule: Q01DX001 (ip), vehicle: other

Measured: T/C

C/C=C/C1CCCCC1
inactive: [1] 97 % of control | [2] 97 % of control | [3] 93 % of control

C=CCOCC(O)C[As](=O)(O)c1ccc(Cl)cc1 (stereo not drawn)
inactive: dose: 1.56 mg/kg/injection, schedule: Q04DX003 (ip), vehicle: saline with Tween-80 104 % of control | dose: 3.13 mg/kg/injection, schedule: Q04DX003 (ip), vehicle: saline with Tween-80 104 % of control | dose: 6.25 mg/kg/injection, schedule: Q04DX003 (ip), vehicle: saline with Tween-80 112 % of control

CCCCCCOC(=O)C(C)(O)C(Cl)c1ccccc1 (stereo not drawn)
inactive: dose: 100.0 mg/kg/injection, schedule: Q04DX002 (ip), vehicle: saline 100 % of control | dose: 200.0 mg/kg/injection, schedule: Q04DX002 (ip), vehicle: saline 111 % of control | dose: 400.0 mg/kg/injection, schedule: Q04DX002 (ip), vehicle: saline 91 % of control

CN(C)CCC(=O)c1ccccc1
inactive: dose: 12.5 mg/kg/injection, schedule: Q01DX009 (ip), vehicle: saline 101 % of control | dose: 25.0 mg/kg/injection, schedule: Q01DX009 (ip), vehicle: saline 101 % of control | dose: 25.0 mg/kg/injection, schedule: Q04DX003 (ip), vehicle: saline 105 % of control | [4] 103 % of control | [1] 98 % of control | dose: 50.0 mg/kg/injection, schedule: Q04DX003 (ip), vehicle: saline 101 % of control | [5] 103 % of control | dose: 100.0 mg/kg/injection, schedule: Q04DX003 (ip), vehicle: saline 100 % of control

CCOC(=O)C1=NN(c2ccccc2)C(=O)C1N=Nc1ccc(S(=O)(=O)Nc2onc(C)c2C)cc1 (stereo not drawn)
inactive: [5] 104 % of control | [6] 98 % of control | dose: 400.0 mg/kg/injection, schedule: Q01DX001 (ip), vehicle: saline 107 % of control

CC1C(=O)OC(C)(C)C1(C)C (stereo not drawn)
inactive: [7] 108 % of control | [8] 96 % of control | dose: 100.0 mg/kg/injection, schedule: Q04DX003 (ip), vehicle: saline with Tween-80 96 % of control

ClCCN(CCCl)CCN1c2ccccc2Sc2ccccc21
inactive: dose: 9.37 mg/kg/injection, schedule: Q01DX009 (ip), vehicle: Klucel (hydroxypropylcellulose) (HPC) 114 % of control | dose: 12.5 mg/kg/injection, schedule: Q01DX001 (ip), vehicle: Klucel (hydroxypropylcellulose) (HPC) 114 % of control | dose: 12.5 mg/kg/injection, schedule: Q04DX003 (ip), vehicle: saline with Tween-80 103 % of control | dose: 16.5 mg/kg/injection, schedule: Q01DX001 (ip), vehicle: Klucel (hydroxypropylcellulose) (HPC) 100 % of control and 111 % of control | dose: 18.75 mg/kg/injection, schedule: Q01DX009 (ip), vehicle: Klucel (hydroxypropylcellulose) (HPC) 106 % of control | dose: 25.0 mg/kg/injection, schedule: Q01DX001 (ip), vehicle: Klucel (hydroxypropylcellulose) (HPC) 95 % of control and 112 % of control | [7] 108 % of control | dose: 29.0 mg/kg/injection, schedule: Q01DX015 (ip), vehicle: carboxymethylcellulose (CMC) 102 % of control | dose: 37.5 mg/kg/injection, schedule: Q01DX001 (ip), vehicle: Klucel (hydroxypropylcellulose) (HPC) 101 % of control and 122 % of control | dose: 37.5 mg/kg/injection, schedule: Q01DX009 (ip), vehicle: Klucel (hydroxypropylcellulose) (HPC) 89 % of control | [8] 92 % of control | dose: 85.0 mg/kg/injection, schedule: Q04DX003 (ip), vehicle: Klucel (hydroxypropylcellulose) (HPC) 115 % of control | dose: 88.8 mg/kg/injection, schedule: Q01DX001 (ip), vehicle: carboxymethylcellulose (CMC) 115 % of control | dose: 100.0 mg/kg/injection, schedule: Q01DX001 (ip), vehicle: Klucel (hydroxypropylcellulose) (HPC) 119 % of control | dose: 100.0 mg/kg/injection, schedule: Q01DX001 (ip), vehicle: carboxymethylcellulose (CMC) 104 % of control | dose: 133.0 mg/kg/injection, schedule: Q01DX001 (ip), vehicle: carboxymethylcellulose (CMC) 113 % of control and 115 % of control

COCc1ccc(C(=O)Nc2c(N)ncnc2N)cc1
inactive: dose: 100.0 mg/kg/injection, schedule: Q01DX001 (ip), vehicle: saline with Tween-80 100 % of control | dose: 200.0 mg/kg/injection, schedule: Q01DX001 (ip), vehicle: saline with Tween-80 102 % of control | dose: 400.0 mg/kg/injection, schedule: Q01DX001 (ip), vehicle: saline with Tween-80 95 % of control

O=C1C=CC(=O)N1c1ccc(Cl)cc1 (tested in a mixture with another compound)
inactive: dose: 100.0 mg/kg/injection, schedule: Q04DX003 (ip), vehicle: acetone 94 % of control | dose: 200.0 mg/kg/injection, schedule: Q04DX003 (ip), vehicle: acetone 103 % of control | dose: 400.0 mg/kg/injection, schedule: Q04DX003 (ip), vehicle: acetone 87 % of control

CCOC(=O)NN1C(=O)c2cccc3c([N+](=O)[O-])ccc(c23)C1=O
inactive: dose: 12.5 mg/kg/injection, schedule: Q01DX009 (ip), vehicle: Klucel (hydroxypropylcellulose) (HPC) 105 % of control | dose: 25.0 mg/kg/injection, schedule: Q01DX009 (ip), vehicle: Klucel (hydroxypropylcellulose) (HPC) 94 % of control | dose: 50.0 mg/kg/injection, schedule: Q01DX009 (ip), vehicle: Klucel (hydroxypropylcellulose) (HPC) 96 % of control

CC1CCC2C(C)C3C(CC4C5CCC6CC(O)CCC6(C)C5CCC43C)N2C1 (stereo not drawn)
inactive: dose: 50.0 mg/kg/injection, schedule: Q01DX001 (ip), vehicle: other 91 % of control | [9] 88 % of control | [10] 96 % of control | [11] 91 % of control

Cc1c(/C=N/N=c2/[nH][nH]/c(=N/N=C/c3c(C)n(C)n(-c4ccccc4)c3=O)c3ccccc23)c(=O)n(-c2ccccc2)n1C
inactive: [4] 93 % of control | [5] 106 % of control | [6] 114 % of control

Clc1nc(Cl)c(Cl)[nH]1
inactive: dose: 6.25 mg/kg/injection, schedule: Q01DX009 (ip), vehicle: saline with Tween-80 94 % of control | dose: 12.5 mg/kg/injection, schedule: Q01DX009 (ip), vehicle: saline with Tween-80 93 % of control

CC#CC(C)(O)C(=O)OC (stereo not drawn)
inactive: [9] 105 % of control | [10] 98 % of control | [11] 94 % of control

Cc1ccc([N+](=O)[O-])cc1NC(=O)OCCOc1ccccc1
inactive: [2] 90 % of control | [3] 103 % of control | dose: 400.0 mg/kg/injection, schedule: Q01DX009 (ip), vehicle: saline 92 % of control

CCCCCCCCCCCCCCCCCC
inactive: dose: 100.0 mg/kg/injection, schedule: Q04DX002 (ip), vehicle: other 96 % of control | dose: 200.0 mg/kg/injection, schedule: Q04DX002 (ip), vehicle: other 92 % of control

O=C(O)CC(NCc1ccccc1)C(=O)O (stereo not drawn)
inactive: dose: 100.0 mg/kg/injection, schedule: Q01DX009 (ip), vehicle: saline with Tween-80 93 % of control | dose: 200.0 mg/kg/injection, schedule: Q01DX009 (ip), vehicle: saline with Tween-80 91 % of control | dose: 400.0 mg/kg/injection, schedule: Q01DX009 (ip), vehicle: saline with Tween-80 93 % of control
